Laboratory results as given in ChEMBL document CHEMBL3507680, “University of Dundee, Gates Library screen for HepG2 cell viability”.

Assay: Human HepG2 cell viability assay in 384 well format
Format: toxicity, cell-based
Design: dose 125 nL, time 70.5 hour; concentration not given beside the values
Settings: HepG2 cells, read-out: Inhibition

**Q.** Which cytotoxicity at 70.5 h does the source give for `O=S(=O)(c1ccccc1)N1CCCCC1c1cc[nH]n1` (stereo not drawn) here?
**A.** The cytotoxicity at 70.5 h was 21.8%.

**Q.** With `Cc1c(C2CCOC(C)(C)C2)nc(N)c(C#N)c1-c1ccc(O)cc1` (stereo not drawn) as the compound, how does the cytotoxicity at 70.5 h read?
**A.** The cytotoxicity at 70.5 h was 11.3%.

**Q.** For `CCOc1ccc(CNC(=O)N(C)Cc2ncnn2C)cc1C`, which cytotoxicity at 70.5 h is on record?
**A.** Its cytotoxicity at 70.5 h is 1.14%.

**Q.** For `N#Cc1nc(COc2ccc3c(c2)OCO3)oc1NC1CC1`, which cytotoxicity at 70.5 h is on record?
**A.** The cytotoxicity at 70.5 h was -28.4%.

**Q.** Which cytotoxicity at 70.5 h does the source give for `CCOc1ccccc1CNC(=O)N1CCC(n2cncn2)CC1` here?
**A.** Its cytotoxicity at 70.5 h is -11.8%.

**Q.** With `COc1cc2c(cc1OC)S(=O)(=O)N(Cc1cccc(C)c1)C2=O` as the compound, how does the cytotoxicity at 70.5 h read?
**A.** The cytotoxicity at 70.5 h was -11.2%.

**Q.** For `CC(=O)N[C@@H]1CN(Cc2nccn2C)C[C@H]1c1ccc(C)cc1`, which cytotoxicity at 70.5 h is on record?
**A.** The cytotoxicity at 70.5 h was 22.6%.

**Q.** With `O=C1COC2(CCN(C(=O)c3ccoc3)CC2)CN1Cc1ccccn1` as the compound, how does the cytotoxicity at 70.5 h read?
**A.** The cytotoxicity at 70.5 h was -0.827%.

**Q.** For `COc1ccc(C(C)N2CCC(OC)CC2)cc1Cl` (stereo not drawn), which cytotoxicity at 70.5 h is on record?
**A.** The cytotoxicity at 70.5 h was -5.66%.

**Q.** With `Cc1nn(C)cc1CNCc1ccc(N(C)C)cc1` as the compound, how does the cytotoxicity at 70.5 h read?
**A.** Its cytotoxicity at 70.5 h is 1.1%.

**Q.** For `COc1ccnc(N2CCN(C(=O)c3cnc(C4CC4)s3)CC2)n1`, which cytotoxicity at 70.5 h is on record?
**A.** Its cytotoxicity at 70.5 h is -5.21%.

**Q.** With `Cc1cccc(C(=O)NC(CN2CCCC2=O)c2ccccc2)n1` (stereo not drawn) as the compound, how does the cytotoxicity at 70.5 h read?
**A.** The cytotoxicity at 70.5 h was 0.515%.

**Q.** For `Cc1ccc(C)c(CN2CCOC(c3noc(C)n3)C2)c1` (stereo not drawn), which cytotoxicity at 70.5 h is on record?
**A.** The cytotoxicity at 70.5 h was -4.49%.

**Q.** For `COCCNc1ccc(CC2CCCN(c3ncccn3)C2)nn1` (stereo not drawn), which cytotoxicity at 70.5 h is on record?
**A.** Its cytotoxicity at 70.5 h is -1.21%.

**Q.** For `CCc1noc(CNCC2CCCN2c2cccnn2)n1` (stereo not drawn), which cytotoxicity at 70.5 h is on record?
**A.** The cytotoxicity at 70.5 h was 1.91%.

**Q.** With `CC(C)C(=O)N1CCC(C)(c2cc[nH]n2)CC1` as the compound, how does the cytotoxicity at 70.5 h read?
**A.** The cytotoxicity at 70.5 h was -0.608%.

**Q.** Which cytotoxicity at 70.5 h does the source give for `CC1(CCC(=O)N2CCC(n3cc(C4(O)CCCC4)nn3)CC2)CC1` here?
**A.** The cytotoxicity at 70.5 h was 22.5%.

**Q.** Which cytotoxicity at 70.5 h does the source give for `O=C(c1cccnc1N1CCCCC1)N1CCCC(n2ccnc2)C1` (stereo not drawn) here?
**A.** The cytotoxicity at 70.5 h was 1.48%.

**Q.** With `O=C1CCOCCN1Cc1ccc(C(F)(F)F)c(F)c1` as the compound, how does the cytotoxicity at 70.5 h read?
**A.** The cytotoxicity at 70.5 h was 14.1%.

**Q.** Which cytotoxicity at 70.5 h does the source give for `COc1cccc2ccn(CCC(=O)N3CCCC(C(=O)O)C3)c12` (stereo not drawn) here?
**A.** The cytotoxicity at 70.5 h was -22.2%.

**Q.** Which cytotoxicity at 70.5 h does the source give for `CCn1nc(CC(C)C)cc1C(=O)N1CC(c2ccncc2)C1` here?
**A.** The cytotoxicity at 70.5 h was -4.86%.

**Q.** Which cytotoxicity at 70.5 h does the source give for `Cc1ccc(Cl)cc1C(=O)N1CCC2(CC1)c1ccccc1[C@@H](N)[C@@H]2O` here?
**A.** The cytotoxicity at 70.5 h was 15.9%.

**Q.** With `Fc1cccnc1N1CCC2(CNCCC2(F)F)C1` (stereo not drawn) as the compound, how does the cytotoxicity at 70.5 h read?
**A.** Its cytotoxicity at 70.5 h is 12.5%.

**Q.** Which cytotoxicity at 70.5 h does the source give for `CCNc1cc2c(nn1)CCN(C(=O)Cc1ccc(C)nc1)C2` here?
**A.** Its cytotoxicity at 70.5 h is -6.5%.

**Q.** With `COCCN1CCC2(CC1)CN(C(=O)Cc1cccnc1)CCO2` as the compound, how does the cytotoxicity at 70.5 h read?
**A.** The cytotoxicity at 70.5 h was -5.95%.

**Q.** Which cytotoxicity at 70.5 h does the source give for `CCOCCCNC(=O)c1nc2c(s1)CCCN2c1ccc(C)nn1` here?
**A.** The cytotoxicity at 70.5 h was -7.8%.

**Q.** With `CCn1cc(CNC(=O)C(C)C)cn1` as the compound, how does the cytotoxicity at 70.5 h read?
**A.** The cytotoxicity at 70.5 h was 0.0963%.

**Q.** Which cytotoxicity at 70.5 h does the source give for `CC(C)(C)c1cnc(CN2CCN(c3ncccn3)CC2)o1` here?
**A.** Its cytotoxicity at 70.5 h is 6.21%.

**Q.** For `Cc1cccc(N2CCN(C(=O)CNCCn3cccn3)CC2)c1`, which cytotoxicity at 70.5 h is on record?
**A.** Its cytotoxicity at 70.5 h is 9.75%.

**Q.** For `CC(=O)N1CCCC(Cc2cncc(Br)c2)CC1` (stereo not drawn), which cytotoxicity at 70.5 h is on record?
**A.** The cytotoxicity at 70.5 h was 19.5%.

**Q.** For `CC(NC(=O)Nc1nccs1)c1ccc(S(C)(=O)=O)cc1` (stereo not drawn), which cytotoxicity at 70.5 h is on record?
**A.** Its cytotoxicity at 70.5 h is -18.5%.

**Q.** For `Cc1cc(C[S+]([O-])CC(=O)Nc2c(C)cccc2C)no1` (stereo not drawn), which cytotoxicity at 70.5 h is on record?
**A.** The cytotoxicity at 70.5 h was -8.27%.

**Q.** For `COc1cccc(-c2noc(-c3ccc(NCC(C)C)nc3)n2)c1OC`, which cytotoxicity at 70.5 h is on record?
**A.** The cytotoxicity at 70.5 h was -2.74%.

**Q.** Which cytotoxicity at 70.5 h does the source give for `Cc1ccn(CCC(=O)N2CCOC(c3nc(-c4cccs4)no3)C2)n1` (stereo not drawn) here?
**A.** Its cytotoxicity at 70.5 h is -2.76%.

**Q.** With `COCC[C@]1(O)CCN(Cc2ccccn2)C[C@H]1C` as the compound, how does the cytotoxicity at 70.5 h read?
**A.** The cytotoxicity at 70.5 h was -0.199%.

**Q.** For `CNC(=O)[C@H]1C[C@H]2OCC[C@H]2N(Cc2cccc3ccccc23)C1`, which cytotoxicity at 70.5 h is on record?
**A.** Its cytotoxicity at 70.5 h is -6.96%.

**Q.** Which cytotoxicity at 70.5 h does the source give for `O=C1C(n2nnc(-c3cccs3)n2)CCN1CC(F)(F)F` (stereo not drawn) here?
**A.** Its cytotoxicity at 70.5 h is -7.6%.

**Q.** For `CC(C)n1nccc1NC(=O)CN1CCc2sccc2C1`, which cytotoxicity at 70.5 h is on record?
**A.** Its cytotoxicity at 70.5 h is -15.3%.

**Q.** With `O=C(Cc1cccc(F)c1)NC1CCCc2cn[nH]c21` (stereo not drawn) as the compound, how does the cytotoxicity at 70.5 h read?
**A.** Its cytotoxicity at 70.5 h is -11.9%.

**Q.** Which cytotoxicity at 70.5 h does the source give for `NC(=O)N1CC[C@H](O)[C@@H]1Cc1cccnc1` here?
**A.** Its cytotoxicity at 70.5 h is -12.6%.

**Q.** Which cytotoxicity at 70.5 h does the source give for `CCN(C(=O)CCc1ccc2c(c1)OCO2)C1CC(=O)NC1=O` (stereo not drawn) here?
**A.** Its cytotoxicity at 70.5 h is 6.1%.

**Q.** With `CC(C)N(CCCNC(=O)C1CCCN(C(N)=O)C1)S(C)(=O)=O` (stereo not drawn) as the compound, how does the cytotoxicity at 70.5 h read?
**A.** Its cytotoxicity at 70.5 h is -5.29%.

**Q.** With `CCn1c(CN(C)C)nnc1C1CCN(Cc2ccc(Cl)cc2F)CC1` as the compound, how does the cytotoxicity at 70.5 h read?
**A.** Its cytotoxicity at 70.5 h is -0.622%.

**Q.** For `CC(C)N1CCC2(CC1)C[C@@H](O)[C@H](c1ccccc1)NC2=O`, which cytotoxicity at 70.5 h is on record?
**A.** Its cytotoxicity at 70.5 h is 9.43%.

**Q.** With `CC(C)c1cc(C2CCN(C(=O)Cn3cncn3)CC2)[nH]n1` as the compound, how does the cytotoxicity at 70.5 h read?
**A.** Its cytotoxicity at 70.5 h is 43.3%.

**Q.** With `C[C@@H]1CN(Cc2ccccc2F)CC(C(N)=O)O1` (stereo partly drawn) as the compound, how does the cytotoxicity at 70.5 h read?
**A.** The cytotoxicity at 70.5 h was -14.1%.

**Q.** For `Cc1cc(-c2nc(-c3ccccn3)nn2C2CCN(C)CC2)nc(C)n1`, which cytotoxicity at 70.5 h is on record?
**A.** Its cytotoxicity at 70.5 h is -3.28%.

**Q.** With `CN(C)CCCN(CCC#N)C(=O)Nc1ccc2[nH]ccc2c1` as the compound, how does the cytotoxicity at 70.5 h read?
**A.** The cytotoxicity at 70.5 h was -4.34%.

**Q.** Which cytotoxicity at 70.5 h does the source give for `O=C(c1cn(CC(=O)N2CCCC2)c2ccccc12)C1CC1` here?
**A.** The cytotoxicity at 70.5 h was -2.27%.

**Q.** With `Cc1csc(CCCNc2ccc(S(N)(=O)=O)cc2C#N)n1` as the compound, how does the cytotoxicity at 70.5 h read?
**A.** Its cytotoxicity at 70.5 h is -22.6%.

**Q.** With `Cc1ccc(CNCCC(O)(c2nccn2C)C(F)(F)F)o1` (stereo not drawn) as the compound, how does the cytotoxicity at 70.5 h read?
**A.** Its cytotoxicity at 70.5 h is -6.24%.

**Q.** Which cytotoxicity at 70.5 h does the source give for `N#Cc1ccc(CN2CCCC(Cn3cncn3)C2)c(F)c1` (stereo not drawn) here?
**A.** Its cytotoxicity at 70.5 h is 8.28%.

**Q.** With `COc1ccccc1NC(=O)c1cnc(C2CCN(C(C)=O)C2)nc1C` (stereo not drawn) as the compound, how does the cytotoxicity at 70.5 h read?
**A.** The cytotoxicity at 70.5 h was -1.01%.

**Q.** Which cytotoxicity at 70.5 h does the source give for `CC(C)CN1CCC(NC(=O)c2ccc(F)cc2I)CC1` here?
**A.** The cytotoxicity at 70.5 h was 11.3%.

**Q.** For `O=C(CS(=O)(=O)Cc1ccccc1)NCc1ccccc1F`, which cytotoxicity at 70.5 h is on record?
**A.** Its cytotoxicity at 70.5 h is 22.1%.

**Q.** With `CCSCc1ccc(C(=O)N2CCCN(CC(N)=O)CC2)cc1` as the compound, how does the cytotoxicity at 70.5 h read?
**A.** The cytotoxicity at 70.5 h was -5.22%.

**Q.** With `Cn1nc(C2CCCNC2)c2c(C(=O)NC3CC3)cc(C3CC3)nc21` (stereo not drawn) as the compound, how does the cytotoxicity at 70.5 h read?
**A.** The cytotoxicity at 70.5 h was 13.4%.

**Q.** For `Cc1cc(NC2CCc3nc(C)nn3C2)n2ncnc2n1` (stereo not drawn), which cytotoxicity at 70.5 h is on record?
**A.** Its cytotoxicity at 70.5 h is -98.6%.
